13 compounds from US20230147257A1 (DONG-A ST CO., LTD., priority 2020, published 2023) can be followed below.

The IC50 is the concentration at which inhibition is half-maximal.

The target of the first assay is T1, AhR (Homo sapiens, UniProt P35869).
T1 construct: host or cells: HepG2
T1 sequence (P35869 11-848): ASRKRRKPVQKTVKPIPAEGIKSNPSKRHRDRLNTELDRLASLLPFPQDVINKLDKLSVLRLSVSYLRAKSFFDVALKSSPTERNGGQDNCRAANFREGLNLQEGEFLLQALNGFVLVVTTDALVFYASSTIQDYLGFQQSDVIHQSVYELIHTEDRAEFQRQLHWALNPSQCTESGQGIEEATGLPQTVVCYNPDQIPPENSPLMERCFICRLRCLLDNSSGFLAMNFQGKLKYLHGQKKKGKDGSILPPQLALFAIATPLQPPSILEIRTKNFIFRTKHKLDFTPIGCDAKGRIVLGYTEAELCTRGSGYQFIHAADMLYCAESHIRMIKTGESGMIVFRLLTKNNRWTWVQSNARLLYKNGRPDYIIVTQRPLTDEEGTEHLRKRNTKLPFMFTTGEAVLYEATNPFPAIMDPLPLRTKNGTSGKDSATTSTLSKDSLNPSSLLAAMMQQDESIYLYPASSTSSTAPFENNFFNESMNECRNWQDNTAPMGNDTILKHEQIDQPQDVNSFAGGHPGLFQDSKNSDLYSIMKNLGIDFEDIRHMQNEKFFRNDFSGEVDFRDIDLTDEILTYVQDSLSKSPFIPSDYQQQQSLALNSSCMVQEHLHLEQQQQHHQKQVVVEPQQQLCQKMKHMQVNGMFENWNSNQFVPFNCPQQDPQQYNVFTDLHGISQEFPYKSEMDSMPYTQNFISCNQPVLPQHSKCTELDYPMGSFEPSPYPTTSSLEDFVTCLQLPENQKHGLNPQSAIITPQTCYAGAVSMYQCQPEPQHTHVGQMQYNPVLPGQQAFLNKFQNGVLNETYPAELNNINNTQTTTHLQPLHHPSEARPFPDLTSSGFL
The assay can be described thus: In vitro assay 1: XRE-luciferase reporter assay, antagonism in human cell line (HepG2). Format: cell-based. The conditions noted are these: HepG2 XRE-luciferase, cells treated with kynurenine 50 μM (*), 6 hours; read-out: Assay 1: AhR-Luc Human Antagonism (IC50). The source says:
In Vitro XRE-Luciferase Reporter Assay (In Vitro Assay 1, 2, 3)
AhR activation leads the induction of target gene expression such as CYP1A1 and CYP1B1 by AhR binding to AhR-responsive DNA elements also known as xenobiotics responsive elements (XRE). The assay for measuring AhR activity herein is the luciferase assay using cell lines transfected with luciferase reporter plasmid containing XREs at the upstream of the reporter gene. Cells transfected with XRE-luciferase reporter (XRE-Luc) plasmid drive luciferase activity reflecting activation and inhibition of AhR in the cells. In addition to transfection with XRE-reporter vector, cells were co-transfected with Nano-luciferase reporter gene construct (Nano-Luc) containing constitutively active promoter as internal control. Kynurenine (an endogenous AhR agonist) was used to stimulate cells to test antagonistic properties of the compounds. The half-maximal inhibitory concentration (IC50) or half-maximal effective concentration (EC50) value was calculated using nonlinear regression (four parameters) with Prism8.0 software (GraphPad).
In Vitro Assay 1: Antagonism in Human Cell Line
HepG2 (human hepatoma cell line) cell line with a XRE-luciferase reporter either transiently or stably (Invivogen) were plated in complete medium and incubated at 37° C. in a CO2 incubator. After 24 hours, cells were treated with kynurenine (50* or 200 μM) alone (negative control) or with test compounds for 6 hours. Luciferase activity was measured with a commercial kit such as the Promega Luciferase kit or other reagents for measuring luciferase activity. Relative luciferase activity (Firefly/Nano-Luc) was used to calculate IC50 values. The relative luciferase activity was further normalized with kynurenine alone group as the maximum control and the vehicle group as the minimum control. (IC50 values are grouped as A, B, C and D, whereby A: IC50<0.01 μM; B: 0.01<IC50<0.1 μM; C: 0.1<IC50<1.0 μM; D: IC50>1.0 μM)
Background: Reporter assays use an easily measured gene product as a stand-in for the process of interest.
For `CCC(CO)n1cnc2c(-c3cccnc3)nc(-c3ccc(C(F)(F)F)cc3)cc2c1=O` (stereo not shown) [Example 53, 3-(1-hydroxybutan-2-yl)-8-(pyridin-3-yl)-6-(4-(trifluoromethyl)phenyl)pyrido[3,4-d]pyrimidin-4(3H)-one], the IC50 was more than 1000 nM.
As to `CC(O)Cn1cnc2c(-c3cnn(C)c3)nc(-c3ccc(Cl)cc3)cc2c1=O` (stereo not shown) [Example 13, 6-(4-chlorophenyl)-3-(2-hydroxypropyl)-8-(1-methyl-1H-pyrazol-4-yl)pyrido[3,4-d]pyrimidin-4(3H)-one], the half-inhibitory concentration (IC50) is less than 10 nM.
Regarding `CC(CO)n1cnc2c(-c3ccc(Cl)cc3)nc(-c3cccnc3)cc2c1=O` (stereo not shown) [Example 5, 8-(4-chlorophenyl)-3-(1-hydroxypropan-2-yl)-6-(pyridin-3-yl)pyrido[3,4-d]pyrimidin-4(3H)-one], the IC50 is more than 1000 nM.

The same assay, now with this note: HepG2 XRE-luciferase, cells treated with kynurenine 200 μM (no *), 6 hours; read-out: Assay 1: AhR-Luc Human Antagonism (IC50).
Consider `Cn1cc(-c2nc(-c3ccc(Cl)cc3)cc3c(=O)n([C@H]4CC[C@@H](O)C4)cnc23)cn1` [Example 34, 6-(4-chlorophenyl)-3-((1S,3R)-3-hydroxycyclopentyl)-8-(1-methyl-1H-pyrazol-4-yl)pyrido[3,4-d]pyrimidin-4(3H)-one], for which the IC50 is less than 10 nM.
Same read-out and setting: the value for `O=c1c2cc(-c3ccc(C(F)(F)F)cc3)nc(-c3cccnc3)c2ncn1C(CO)CO` [Example 69, 3-(1,3-dihydroxypropan-2-yl)-8-(pyridin-3-yl)-6-(4-(trifluoromethyl)phenyl)pyrido[3,4-d]pyrimidin-4(3H)-one] was less than 10 nM; that for `O=c1c2cc(-c3ccc(C(F)(F)F)nc3)nc(-c3cccnc3)c2ncn1[C@@H]1CC[C@H](O)C1` [Example 65, 3-((1R,3S)-3-hydroxycyclopentyl)-8-(pyridin-3-yl)-6-(6-(trifluoromethyl)pyridin-3-yl)pyrido[3,4-d]pyrimidin-4(3H)-one] was less than 10 nM.
Consider `CC(C)C(CO)n1cnc2c(-c3cccnc3)nc(-c3ccc(Cl)cc3)cc2c1=O` (stereo not shown) [Example 41, 6-(4-chlorophenyl)-3-(1-hydroxy-3-methylbutan-2-yl)-8-(pyridin-3-yl)pyrido[3,4-d]pyrimidin-4(3H)-one], for which the half-maximal inhibitory concentration (IC50) was more than 1000 nM.
As to `CC(CN)n1cnc2c(-c3cccnc3)nc(-c3ccc(Cl)cc3)cc2c1=O` (stereo not shown) [Example 87, 3-(1-aminopropan-2-yl)-6-(4-chlorophenyl)-8-(pyridin-3-yl)pyrido[3,4-d]pyrimidin-4(3H)-one], the IC50 is less than 10 nM.
The same measure, in the same setting: the value for `O=c1c2cc(-c3ccc(Cl)cc3)nc(-c3cccnc3)c2ncn1[C@H]1CC[C@@H](O)C1` [Example 32, 6-(4-chlorophenyl)-3-((1S,3R)-3-hydroxycyclopentyl)-8-(pyridin-3-yl)pyrido[3,4-d]pyrimidin-4(3H)-one] was less than 10 nM; that for `O=c1c2cc(-c3ccc(C(F)(F)F)cc3)nc(-c3cccnc3)c2ncn1[C@@H]1CC[C@H](O)C1` [Example 29, 3-((1R,3S)-3-hydroxycyclopentyl)-8-(pyridin-3-yl)-6-(4-(trifluoromethyl)phenyl)pyrido[3,4-d]pyrimidin-4(3H)-one] was less than 10 nM; that for `CC(C)(O)Cn1cnc2c(-c3cccnc3)nc(-c3ccc(C(F)(F)F)cc3)cc2c1=O` [Example 39, 3-(2-hydroxy-2-methylpropyl)-8-(pyridin-3-yl)-6-(4-(trifluoromethyl)phenyl)pyrido[3,4-d]pyrimidin-4(3H)-one] was more than 1000 nM.
Same read-out and setting: the value for `O=c1c2cc(-c3ccc(Cl)cc3)nc(-c3cccnc3)c2ncn1[C@@H]1CC[C@H](O)C1` [Example 28, 6-(4-chlorophenyl)-3-((1R,3S)-3-hydroxycyclopentyl)-8-(pyridin-3-yl)pyrido[3,4-d]pyrimidin-4(3H)-one] was less than 10 nM.
Take `O=c1c2cc(-c3ccc(N4CCOCC4)cc3)nc(-c3cccnc3)c2ncn1[C@@H]1CC[C@H](O)C1` [Example 73, 3-((1R,3S)-3-hydroxycyclopentyl)-6-(4-morpholinophenyl)-8-(pyridin-3-yl)pyrido[3,4-d]pyrimidin-4(3H)-one]: the IC50 was less than 10 nM.
